Assay results published in US10654807B2, “Toll-like receptor 8 agonists” (The University Of Kansas, priority 2013, dated 2020).
Entries after “also recorded” stand apart in the source; their conditions may differ.

Experiments:
[1] = system: TLR7/TLR8; settings: background statement; cited from earlier work
[2] = system: human natural killer cells; assay: CD69 upregulation by flow cytometry in whole human blood; type: cell-based; settings: 16.5 h, FIG. 8
Experimental: Flow-Cytometric Immunostimulation Experiments:
CD69 upregulation was determined by flow cytometry. Briefly, heparin-anticoagulated whole blood samples were obtained by venipuncture from healthy human volunteers with informed consent and as per guidelines approved by the University of Kansas Human Subjects Experimentation Committee. […] Negative (endotoxin free water) controls were included in each experiment. Following incubation, 200 μL aliquots of anticoagulated whole blood were stained with 20 µL of fluorochrome-conjugated antibodies at 37° C. in the dark for 30 min. For triple color flow cytometry experiments, CD3-PE, CD56-APC, CD69-PE-Cy7 were used to analyze CD69 activation of each of the main peripheral blood lymphocyte populations: natural killer lymphocytes (NK cells: CD3^−CD56^+), cytokine-induced killer phenotype (CIK cells: CD3^+CD56^+), nominal B lymphocytes (CD3^−CD56^−), and nominal T lymphocytes (CD3^+CD56^−). Following staining, erythrocytes were lysed and leukocytes fixed in one step by mixing 200 μL of the samples in 4 mL pre-warmed Whole Blood Lyse/Fix Buffer (Becton-Dickinson Biosciences, San Jose, Calif.). After washing the cells twice at 200 g for 8 minutes in saline, the cells were transferred to a 96-well plate. […]

[3] = system: whole human blood; assay: proinflammatory cytokine induction in human blood; type: cell-based; settings: FIGS. 6A-6D, Compound 2 as reference
[4] = system: human ex vivo blood; settings: transcriptomal profiling

CCCN(CCC)C(=O)C1=Cc2ccc(-c3ccc(C(=O)N4CCCC4)cc3)cc2N=C(N)C1 [VTX-2337]
TLR7/TLR8 agonism profile described [1]: mixed TLR7/TLR8-agonism

CCCCc1cc2c(o1)c(N)nc1ccccc12 [Compound A8d, 2-butylfuro[2,3-c]quinolin-4-amine]
CD69 expression on natural killer lymphocytes [2]: absence of natural killer lymphocyte activation; also recorded: absence of CD69 upregulation | induction of TNF-α, IL-1β, IL-6 and IL-8 [3]: induce TNF-α, IL-β, IL-6 and IL-8 in a dose-dependent manner, albeit with a lower potency than Compound 2 | IFN-α transcription [4]: induced only by Compound 2 | induction of proinflammatory cytokine transcripts [4]: strong induction of proinflammatory cytokine transcripts (including IL-12 and IL-18)
